Earlier results in patent US20110268770A1, “CHEWABLE GELLED EMULSIONS” (PROBIO ASA, priority 2008, published 2011).

Settings: commercially available statins

Row | Structure (SMILES) | solubility class (water-soluble or lipid-soluble)
1 | CC[C@H](C)C(=O)O[C@H]1C[C@@H](C)C=C2C=C[C@H](C)[C@H](CC[C@@H]3C[C@@H](O)CC(=O)O3)[C@H]21 [lovastatin] | lipid-soluble
2 | CC[C@H](C)C(=O)O[C@H]1C[C@H](O)C=C2C=C[C@H](C)[C@H](CC[C@@H](O)C[C@@H](O)CC(=O)O)[C@H]21 [pravastatin] | water-soluble
3 | CC(C)c1nc(N(C)S(C)(=O)=O)nc(-c2ccc(F)cc2)c1/C=C/[C@@H](O)C[C@@H](O)CC(=O)O [rosuvastatin] | water-soluble
